According to a melting point compilation (Tetko et al.; mined from patent text by program, amines drawn as free bases though some values may be those of a salt):

SMILES	melting point
CC(=O)Oc1ccc(-c2c3ccccc3cc3sc(C)c(C)c23)cc1	147 to 150 °C
O=C(O)c1ccc(OCc2ccccc2)cc1OCc1ccccc1	123 to 124 °C
Cc1nn(C2CCCCC2)c(N)c1C(N)=O	181 to 182 °C
O=[N+]([O-])c1ccc(Cn2c(S(=O)(=O)C(F)(F)C(F)F)nc(-c3ccc(F)cc3)c2-c2ccc(F)cc2)cc1	169 to 170 °C
CCCOc1ccccc1-c1nc(O)cc(O)n1	224 to 225 °C
CCOC(=O)c1cn(CC)c2cc(NC(C)=O)c(F)cc2c1=O	177 to 180 °C
COCC(=O)Nc1cccc(NC(=O)COC)c1	110 to 111 °C
CCCCS(=O)(=O)ON=C(C#N)c1ccc(OC)cc1	71 °C
O=Cc1ccccc1Oc1ccc(F)cc1[N+](=O)[O-]	94 to 95 °C
CC(=O)N(C)c1ccc(CO)cc1	83.5 to 85.5 °C
O=C(O)c1cccc(-c2nc(-c3ccc(F)c(F)c3)cs2)c1	255 to 256 °C
CC(C)OC(=O)N1c2ccccc2Sc2cc(O)c3ccccc3c21	205 to 206 °C
O=C(O)/C=C(\c1ccccc1)c1ccncc1	239 to 241 °C
Oc1ccccc1Cc1ccc(Cl)nn1	132 °C
N#Cc1ccccc1CSc1nc2cnccc2[nH]1	200 to 202 °C
CCCCCc1ncc(C(=O)OCC)c(O)n1	127 to 129 °C
CN(C)C1=NS(=O)(=O)c2ccccc21	323 to 324 °C
COc1ccc(C)c(Nc2c(C#N)cnc3c2C=C2N=C(NCCN4CCOCC4)N=C2C3)c1	148 to 150 °C
COc1ccccc1[C@@H]1O[C@@H](CC(=O)O)C(=O)N(CC(C)(C)C)c2ccc(Cl)cc21	179 to 183 °C
Cc1cccc2c(=O)[nH]c(N3CCN(C)CC3)cc12	186 to 188 °C
CC(C)=CCOc1ccc2c(C)cc(=O)oc2c1C(=O)C=Cc1cccnc1	156 to 157 °C
Cc1ccc(-c2cc(-c3ccccc3)n[nH]2)cc1	175 °C
N#Cc1ccc(N2CCC(F)(F)C2)c2ccccc12	68 to 69 °C
CCN(C(=O)OC(C)(C)C)n1c(C)nc(N2CCc3ccccc3CC2)c(C#N)c1=O	86 to 88 °C
Fc1cc(CC2(Cc3ccncc3)c3ccccc3-c3sccc32)ccn1 (stereo not drawn)	117 to 119 °C

SMILES	melting point
COc1ccc(-c2nn(CC=Cc3ccc(F)cc3F)c(=O)cc2-c2ccncc2)cc1	55.4 to 56.9 °C
CN1Cc2c(-c3nc(C4CC4)no3)ncn2-c2ccc(F)cc2C1=O	216 to 217 °C
COC(=O)c1ccc(COc2ccc3c(c2)CCN(C2CCN(C4CCC4)CC2)C3=O)cc1	165 to 166 °C
Cc1nc(Sc2cc(C(=O)O)ccn2)sc1CC(=O)O	212 to 214 °C
O=c1cnn(CCCCCl)c(=O)[nH]1	93 °C
COc1ccc(Cn2ncc(N3CCOCC3)c(C=NO)c2=O)cc1	166 to 168 °C
Cn1c2ccccc2c(=O)c2c(Cl)cccc21	183 to 186 °C
CC(=O)NCC1CC1c1c(C2CC2)ccc2nn(C)cc12 (stereo not drawn)	102 to 103 °C
O=C(c1ccccc1)c1ccc(N2CCCC2=O)cc1	156 to 158 °C
O=C(c1ccc2nonc2c1)N1C2CCCC1COC2	128 to 130 °C
CCCCC[C@H]1CC[C@H](/C=C/COc2ccc(C=O)cc2)CC1	54 to 55 °C
O=C(CN1CCN(c2ccc(C(=O)O)cc2)CC1)Nc1ccc(Cl)cc1	263 to 265 °C
CCN1CC(c2ccccc2)=C(OCCN2CCCCC2)C1=O	120 °C
O=C(NCCO)c1cccc(-c2cccc3nc(Cc4cccc(C(F)(F)F)c4)sc23)c1	94 to 95 °C
O=C1OC(=Nc2ccc(F)cc2F)C2=C1CCCC2	81 to 84 °C
Cc1ccc(Cc2c[nH]c(NCCCC3CCCc4cccnc43)nc2=O)cn1 (stereo not drawn)	75 to 80 °C
OCc1nccn1CCCc1ccc(OCc2coc(/C=C/c3ccccc3)n2)cc1	143 to 144 °C
CC(C)c1nn(-c2ccc(C(F)(F)F)cn2)cc1CCCO	87 to 88 °C
CC(C)CC1(CC(=O)NO)C(=O)N(CCc2ccccc2)C(=O)N1C (stereo not drawn)	127 to 129 °C
Nc1nc(NC2CC2)c2sc(=O)n(C3OC(CO)C(O)C3O)c2n1 (stereo not drawn)	> 100 °C
COc1cc(C)ccc1S(=O)(=O)NC(=O)C(c1cc(OC)c2c(c1)OCO2)c1cn(C)c2cc(C=O)ccc12 (stereo not drawn)	233 °C
CCc1cc(C(=O)NCc2ccc(-c3ccc(OC(F)F)cc3)cc2)n(C)n1	107 to 108 °C
NC(=O)Cn1nccc1-c1ccc(Oc2ccc(F)cc2)cc1	168 to 169 °C
COc1ccc(-n2nc(C)c(CC(=O)O)c2C)cc1	154 to 155 °C
CCC(=O)NCC[C@@H]1CCc2ccc(O)c(CCO)c21	144 to 146 °C

SMILES	melting point
NS(=O)(=O)c1ccc(-c2c(COCCCO)n[nH]c2-c2ccc(Cl)cc2)cc1	96 °C
CC(=O)Nc1ccc(Nc2nccc(-c3sc(C)nc3C)n2)cc1	219 to 220 °C
CC(C)(C)[Si](OCCCc1ccc(OCC(=O)O)cc1)(c1ccccc1)c1ccccc1	87 to 88 °C
C=CCOC1=C(O)[C@@H](CC/C=C\CCCCCCCCCCCCCC)OC1=O	49 to 53 °C
COC(=O)c1cccn1Cc1ccccc1N	95 to 97 °C
CCN(c1nc(C)cc(-c2ccccc2C(=O)O)n1)c1ccc(C(C)C)cc1Br	209 to 210 °C
CS(=O)c1cccc(-c2ncn(CCCN3CCOCC3)c2-c2ccncc2)c1 (stereo not drawn)	117 to 118 °C
CCCCCCCCCCCCCCCC(=O)OCC(F)(F)Cn1nc(C)c(-c2ccc3c(c2)NC(=O)CO3)c1-c1ccc(F)cc1	106 °C
CCN(C(=O)OC)c1cccc(-c2ccc3nncn3n2)c1	131 to 135 °C
CC(CNc1nc(N)nc2c1ncn2C1OC(CO)C(O)C1O)(c1ccccc1)c1ccccc1 (stereo not drawn)	129 to 132 °C
CC(C)(C)c1cc(OC[Si](C)(C)Cc2ccccc2)cc(C(C)(C)C)c1O	76 to 77 °C
Nc1c([N+](=O)[O-])cc(F)c(F)c1Cl	86 to 88 °C
CCOC(=O)[C@@H]1C[C@H]([N+](=O)[O-])[C@@H](C(=O)O)[C@H](OC(CC)CC)[C@@H]1Sc1ccc(C)cc1	135 to 136 °C
O=S1(=O)N=C2CCCN2c2ccc(O)cc21	> 300 °C
CCOC(=O)c1sc(SC)c(C(=O)CC)c1C	114 to 115 °C
CSc1nc(OC(F)F)cc(OC(F)F)n1	46 to 48 °C
Cn1nc(-c2cc(Oc3ccccc3)c(C#N)cc2F)c(Cl)c1C(F)(F)F	123 °C
CCCCc1nc(Cc2ccc(-c3ccccc3C(=O)OC)cc2)c2ccccc2n1	76 °C
CCOCc1nc2c(N)nc3cc(OCc4nc5ccccc5s4)ccc3c2n1CC(C)(C)NS(C)(=O)=O	258 to 259 °C
Cc1c(C)n2nnnc2c2nc(C)n(CCNC(=O)OC(C)(C)C)c12	> 250 °C
O=C1COc2ccc(CCCCCc3ccc4c(c3)NC(=O)CO4)cc2N1	189 to 190 °C
CCOC(=O)c1sc(SC)c2c1CCC(NC(C)=O)C2=O (stereo not drawn)	215 to 216 °C
O=S(=O)(Nc1ccccc1/C=C/c1ccncc1)c1ccc(OC(F)(F)F)cc1	151 to 153 °C
